Patent US20190142886A1, “Ecklonia cava extract and a pharmaceutical composition for preventing or treating vascular diseases comprising the same as an active ingredient” (Gachon University of Industry-Academic Cooperation …, priority 2017, published 2019)

Key:
fat cell = assay: Fat cell size in obesity-induced ob/ob mouse model (H&E staining); type: in vivo; conditions: ob/ob mice, oral 2.5 mg/kg, 42 days; vs saline group, p<0.005
Source text: (§1) 6-week-old male ob/ob mice were selected. Weight gain was induced by a general diet for 6 weeks. Then, the effect of the PPB prepared in Example 1 was investigated.
(§2) Particularly, the mice were adapted to the animal room environment for 1 week. Then, the mice were divided into two groups, which were fed with a general diet for 42 days (6 weeks). These two groups were the control (saline group) that was fed with a general diet and orally administered with saline and the experimental group (PPB group) that was fed with a general diet and orally administered with PPB at the dose of 2.5 mg/kg.
The adipose tissues were obtained from the mice of the control group and the PPB-treated experimental group prepared in Example <4-1>, and the changes of fat cell size were observed.
Particularly, the adipose tissues obtained from the mice of the control and experimental groups were made into a paraffin block, which was sectioned in the thickness of 7 μm, followed by hematoxylin-eosin staining (H&E staining). The stained tissues were photographed with Axio Imager Z1 upright microscopy system and the cell size was measured by using ImageJ 1.50i software.

liver tissue = assay: Fat accumulation in liver tissue of ob/ob mouse (Oil-red-O); type: in vivo; conditions: ob/ob mice, oral 2.5 mg/kg, 42 days; vs saline group, p<0.005
Source text: as §1, §2
The liver tissues were obtained from the mice of the control group and the experimental group prepared in Example <4-1>. The obtained liver tissues were made into a frozen block, which was sectioned in the thickness of 10 μm. The tissue sections were stained with 0.375% (w/v) Oil-red-O powder. The stained tissues were photographed with Axio Imager Z1 upright microscopy system and the fat accumulation area was measured by using ImageJ 1.50i software.

[1] = test system: mouse-derived vascular endothelial cells (SVEC4-10); assay: PPB in vascular endothelial cell death model (palmitic acid), MTT assay; type: cell-based; conditions: 0.25 mM palmitic acid, 24 hours
Procedure: Mouse-derived vascular endothelial cells (SVEC4-10) in DMEM (Dulbecco's Modified Eagle Medium) supplemented with 10% fetal bovine serum and 1% antibiotics (penicillin/streptomycin) were cultured in a 37° C., 5% CO2 incubator. To obtain sufficient cells, the cells were cultured in 100 Ø plastic dishes. When the cells were cultured until the bottom of the dish was covered 80% by the cells, the adhered cells were detached using trypsin/EDTA solution and then sub-cultured.
The mouse-derived vascular endothelial cells (SVEC4-10) obtained in Example <5-1> were treated with 0.25 mM palmitic acid, leading to the construction of a vascular endothelial cell death model (in vitro).
The cells were treated with PPB at different concentrations for 24 hours. 24 hours later, MTT assay was performed to confirm the number of survived cells. From the result, the effect of PPB on the survival of vascular endothelial cells in the presence of palmitic acid was analyzed.

[2] = test system: Plasminogen activator inhibitor type-1 (PAI-1); assay: Plasma PAI-1 level in ob/ob mouse by ELISA kit; type: in vivo; conditions: ob/ob mice, oral 2.5 mg/kg, 42 days; compared with saline control group
Source text: as §1, §2
In order to measure PAI-1, the biomarker for improving blood circulation, blood was collected from the mouse, and the plasma PAI-1 level was measured by using an ELISA kit.

Oc1cc(O)cc(Oc2c(O)cc(Oc3cc(O)cc(Oc4c(O)cc(O)c5c4Oc4c(O)cc(O)c(-c6c(O)cc(O)c7c6Oc6c(O)cc(O)c(Oc8cc(O)cc(O)c8)c6O7)c4O5)c3)cc2O)c1 [PPB, pyrogallol-phloroglucinol-6,6-bieckol]
fat cell size (fat cell): significantly decreased
fat accumulation area in liver tissue (liver tissue): significantly decreased
number of survived cells ([1]; 5 ug/ml, vs control non-treated with PPB): not much different
survival rate of vascular endothelial cells ([1]; 10 ug/ml): significantly increased
blood PAI-1 level [2]: reduced
